Data on 109 compounds can be found in a melting point compilation (Tetko et al.).

The compound `Oc1cc(C(F)(F)F)nc2c(Cl)cccc12` gave a melting point of 139 °C.
The result for `OCc1ccc(-c2nccs2)cc1` reads 94 to 97 °C; that for `CC(=O)c1ccc(N2CCOCC2)cc1`, 94 to 98 °C.
Compound `Nc1ccncc1Cl` registered a melting point of 51 °C.
Take `c1ccc2c(c1)[nH]c1cnccc12`: the melting point was in the range of 199 to 201 °C.
With `O=S(=O)(N(c1ccccn1)S(=O)(=O)C(F)(F)F)C(F)(F)F` the figure was 39 °C; with `CCN(CC)C(=O)COC(=O)c1ccccc1`, 72.5 °C.
As for `COc1ccc(C2Nn3c(nnc3-c3ccccc3)S2)cc1` (centres undefined), the melting point came out at 160 °C.
The result for `Cc1ccccc1-c1ccccc1P(C(C)(C)C)C(C)(C)C` reads 91.5 °C; that for `CCCCCCC(C)OC(=O)COc1nc(F)c(Cl)c(N)c1Cl` (centres undefined), 59 °C; that for `CC(=O)ON(/C=C1\C(=O)C2(C)CCC1C2(C)C)c1ccccc1` (centres undefined), 162 to 164 °C.
`S=C1NCCc2ccccc21` gave a melting point of 97 to 99 °C.
`O=[N+]([O-])c1ccc(O)c(CBr)c1` registered a melting point of 145 to 149 °C.
The result for `Nc1nc(O)nc(C23CC4CC(CC(C4)C2)C3)n1` reads 340 °C; that for `CC(C)(C)c1cc(N=Nc2cc(C(C)(C)C)cc(C(C)(C)C)c2O)c(O)c(C(C)(C)C)c1`, 246 to 247 °C.
Consider `NC(=O)CC[C@H](NC(=O)OCC1c2ccccc2-c2ccccc21)C(=O)O`, for which the melting point fell in the range of 218 to 223 °C.
`CC(C)(Cc1ccc(F)cc1)N=Cc1ccccc1` showed a melting point of 44 °C.
With `CCOc1ccc(OC(=O)c2ccccc2)cc1` the figure was 104 °C.
With `Nc1cnn(-c2ccccc2)c(=O)c1Cl` the figure was 206 °C.
The result for `O=C1OC(OC2OC(=O)C(Cl)=C2Cl)C(Cl)=C1Cl` (centres undefined) reads 142 °C; that for `N#Cc1c(C2CCCCC2)[nH]c(=S)[nH]c1=O`, 300 °C.
As to `NC1CC1`, the melting point was -10 °C.
As for `COc1cc(C(=O)Nc2ccc3nn(C4CCCCC4)nc3c2)cc(OC)c1OC`, the melting point turned out to be 130 °C.
Take `Cc1c(-c2ccccc2)oc(-c2ccccc2)c(C)c1=O`: the melting point amounted to 144 °C.
Consider `Cc1c(Cl)cccc1Nc1ncccc1C(=O)O`, for which the melting point came to 234 °C.
The result for `CCN(CC)C(=O)C(Cl)=C(C)OP(=O)(OC)OC` reads -45 °C; that for `O=C(O)COc1cc(Cl)c(Cl)cc1Cl`, 156 °C; that for `O=C(N=C=S)c1ccccc1`, 128 to 131 °C.
`O=C1Nc2ccc(Br)cc2C1=O` yielded a melting point of 251 to 253 °C.
The result for `COc1ccc(O)cc1C(C)(C)C` reads 48 °C; that for `Cc1ccc(C(c2ccc(C)o2)c2cc(I)cc(I)c2O)o1`, 143 °C.
The result for `Cc1ccc(Oc2ccc(Br)cc2)nn1` reads 120 °C; that for `CCOC(=O)c1ccc(OC)c(OC)c1Cl`, 50 to 52 °C; that for `O=C(O)c1ccc(OCC(F)(F)F)nc1`, 174 °C.
In turn, `NC(=O)c1cc(Cl)cc(Cl)c1N` gave a melting point of 162 °C.
With `O=c1cccco1` the figure was 8.5 °C; with `CCCCCCCCCCCCCCCCCCCCCO`, 68 to 71 °C; with `Cn1c(=O)oc2ccccc21`, 82 to 86 °C.
`OC(c1ccccc1)(c1ccccc1)C1CCNCC1` yielded a melting point of 160 °C.
With `O=C(O)Cn1c(=O)sc2cccc(Cl)c21` the figure was 193 °C; with `CCCCCCCCC(=O)OC1CCC2(C)C(=CCC3C2CCC2(C)C(C(C)CCCC(C)C)CCC32)C1` (centres undefined), 74 to 77 °C; with `OCCC(F)(F)C(F)(F)C(F)(F)C(F)(F)F`, -58 °C.
Compound `CC(=O)c1cc2cc(Cl)cc(Cl)c2oc1=O` had a melting point of 172 to 174 °C.
`CCCCCCCc1ccccc1` yielded a melting point of -48 °C.
The result for `CCOC(=O)CSc1ncc(C(=O)OC)n1C` reads 35 to 36 °C.
With `CN1C(=O)c2ccccc2C1OC(=O)c1ccccc1` (centres undefined) the figure was 93 °C.
With `N#C/C(=N\Nc1cc(Cl)c(Cl)cc1Cl)c1nc(-c2ccc(Cl)cc2)cs1` the figure was 176 °C; with `CC(C)(OC1CCCCC1)C(=O)O`, 75 °C.
For the compound `CCOc1ccc(NC(=O)CN)cc1`, the melting point is 100 °C.
As for `Cc1cc(C)n(C(=O)CC#N)n1`, the melting point amounted to 120 °C.
With `Cc1ccccc1N1CCN(CCc2nnc3n2CCCC3)CC1` the figure was 158 °C; with `CC(Cc1oc2c(c3c(c4ccccc42)O[C@@H]2CC(=O)O[C@H]32)c(=O)c1[Si](C)(C)C)O[Si](C)(C)C(C)(C)C` (some centres undefined), 188 to 190 °C.
With `CN(C)C(=O)C(C(F)(F)F)C(F)(F)F` the figure was 54 °C; with `NC(=O)N1C(=O)C=CC1=O`, 159 °C.
The result for `CC(=O)N(Nc1ccccc1)c1ccc(-c2ccc(/N=N/c3ccccc3)cc2)cc1` reads 244 °C; that for `Nc1ccc(Cl)cc1Br`, 66 °C; that for `c1ccc(-n2ccnc2)cc1`, 13 °C.
As for `CC1(O)CSC(C)(O)CS1` (centres undefined), the melting point fell in the range of 64 to 65 °C.
With `CN(c1c(F)c(F)c(F)c(F)c1F)N(O)O` the figure was 39.5 °C; with `CC(C)[C@H](NC(=O)OCc1ccccc1)C(=O)O`, 60 °C; with `C=C(C)CCCCCCCCCCC`, -22 °C.
The compound `CC1=C(C)C2(C)C(C)=C(C)C12C` (centres undefined) displayed a melting point of 0.7 °C.
The compound `CC(C)(Oc1ccc(Cl)cc1)C(=O)OCCCOC(=O)C(C)(C)Oc1ccc(Cl)cc1` showed a melting point of 52 °C.
`NS(=O)(=O)c1cc2c(cc1Cl)N=C(CSCc1ccccc1)NS2(=O)=O` displayed a melting point of 232 °C.
With `O=C1OC(c2ccccc2)=NC1=Cc1ccc(-c2ccccc2)o1` the figure was 142 to 143 °C; with `CC(=O)OC1CCC2(C)C(=CC(=O)C3C2CCC2(C)C(OCc4ccccc4)CCC32)C1` (centres undefined), 203 °C.
In turn, `C=CCNC(=S)Nc1sc2c(c1C(=O)OCC)CCN(Cc1ccccc1)C2` returned a melting point of 138 to 139 °C.
The result for `O=C(O)c1cccc2c1OCCCO2` reads 68 to 70 °C; that for `O=Cc1cc(O)ccc1I`, 125 to 126 °C.
Compound `O=C(Nc1ccccc1Cl)c1ccccc1` returned a melting point of 99 °C.
`NC(Cc1ccc(Cl)cc1)C(=O)O` (centres undefined) returned a melting point of 260 °C.
In turn, `Cn1cc(Br)c(CO)n1` gave a melting point of 94 to 95 °C.
`CC1(C)C=Cc2c(ccc3c2OC2c4ccc(O)cc4OCC32)O1` (centres undefined) gave a melting point of 178 °C.
As to `Cc1cccc(OCC(O)CNC(C)C)c1` (centres undefined), the melting point amounted to 76 °C.
`CCOC(=O)c1c(C)csc1N` gave a melting point of 81 °C.
On to `NC(=O)COc1cccc(Cl)c1`, for which the melting point was 123 to 126 °C.
With `CC1(C)CCC(O)CC1` the figure was 28 to 30 °C; with `O=C(O)c1ccc(C(=O)C(F)(F)F)cc1`, 178 to 181 °C; with `Cc1nc(-c2ccc(Br)s2)no1`, 54 to 55 °C.
The result for `CCC(Cc1c(I)cc(I)c(O)c1I)C(=O)O` (centres undefined) reads 147 °C; that for `O=[N+]([O-])c1ccccc1OCCBr`, 40 to 44 °C.
With `Cc1ccc(O)c(F)c1F` the figure was 37 °C; with `COC(=O)CCC(C)C1CCC2C3C(O)C(O)C4CC(O)CCC4(C)C3CC(O)C12C` (centres undefined), 162 °C; with `NS(=O)(=O)c1cc(C(=O)c2ccc(O)cc2)cs1`, 192 °C.
In turn, `CC(=O)NC1CC=CCC(NC(C)=O)CC=CC1` (centres undefined) yielded a melting point of 267 to 277 °C.
The result for `O=C(CCl)c1ccc(Cl)cc1Cl` reads 54 °C.
With `CC(CCC(N)=O)n1nc2ccccc2n1` (centres undefined) the figure was 102 °C; with `O=Cc1ccccc1/C=C/c1ccc([N+](=O)[O-])cc1[N+](=O)[O-]`, 186 °C; with `O=C1NC(=O)C(=NNc2ccc(Br)cc2)C(=O)N1`, 295 °C.
With `ClCc1csc(-c2cccs2)n1` the figure was 52 to 56 °C.
Take `CN(C)CCC=C1c2ccccc2COc2ccc(CC(=O)O)cc21`: the melting point came out at 248 °C.
The result for `C=C1C(=O)C23C(OC(C)=O)CC4C(C)(C)CCC(OC(C)=O)C4(C)C2C(OC(C)=O)CC1(OC(C)=O)C3OC(C)=O` (centres undefined) reads 280 °C; that for `N#C/C(=C/c1ccc(Cl)cc1Cl)c1nc2ccccc2c(=O)[nH]1`, 298 to 300 °C; that for `CC(=O)C=Cc1oc2ccc([N+](=O)[O-])cc2c1-c1ccc(C)o1`, 178 °C.
For `FC(F)(F)c1ccccc1CBr`, the melting point was 34 to 35 °C.
In turn, `NC(CS(=O)(=O)Cc1ccc(F)cc1)=NO` returned a melting point of 182 to 185 °C.
With `CCc1nc(CC)nc(NS(=O)(=O)c2ccc(N)cc2)n1`, the melting point amounted to 187 °C.
In turn, `Oc1c(F)c(F)cc(F)c1F` came in with a melting point of 38 °C.
In turn, `CCCSC` came in with a melting point of -113 °C.
In turn, `CSc1nc2cc(NCc3ccccc3)ccc2[nH]1` had a melting point of 164 to 167 °C.
In turn, `Nc1ccc2cc(C(=O)O)ccc2c1` registered a melting point of 222 to 227 °C.
The result for `O=C1c2c(Br)c(Br)c(Br)c(Br)c2C(=O)N1CCN1C(=O)c2c(Br)c(Br)c(Br)c(Br)c2C1=O` reads 445 °C.
For the compound `O=C=Nc1csc(-c2ccc(C(F)(F)F)cc2)n1`, the melting point was determined as 51 °C.
Turning to `CC(C)(C)NC(=O)NN`, the melting point is 119 to 120 °C.
In turn, `NC(=O)/C(=N\Nc1cccnc1)c1nc2ccccc2s1` showed a melting point of 238 °C.
`CC1(C)OC(=O)C(=Cc2ccc(-c3ccc(Br)cc3)o2)C(=O)O1` came in with a melting point of 182 °C.
`O=c1oc2c(O)c(O)cc3c(=O)oc4c(O)c(O)cc1c4c23`: the melting point came out at 450 °C.
Consider `O=C(O)c1cccc(OOCl)c1`, for which the melting point was determined as 92 °C.
With `OC1C2CCC1C1C=CC2O1` (centres undefined) the figure was 121 to 123 °C.

What is called melting point is the temperature of the solid-liquid transition.
